ChEMBL document CHEMBL1123196, “p-Dimethoxy-substituted trans-octahydrobenzo[f]- and -[g]quinolines: synthesis and assessment of dopaminergic agonist effects” (1986)
Calls of active or inactive are those of the source. The rule behind the calls is not given here.

Experiments:
[1] = molecular target: D(2) dopamine receptor (Homo sapiens) (UniProt P14416); experiment: Antagonistic activity at a dose of 3.08 umol/kg was evaluated against Dopamine receptor D2 in the […] cardioaccelerator nerve preparation; Inactive; format: functional
D(2) dopamine receptor (Homo sapiens), sequence (P14416 whole entry): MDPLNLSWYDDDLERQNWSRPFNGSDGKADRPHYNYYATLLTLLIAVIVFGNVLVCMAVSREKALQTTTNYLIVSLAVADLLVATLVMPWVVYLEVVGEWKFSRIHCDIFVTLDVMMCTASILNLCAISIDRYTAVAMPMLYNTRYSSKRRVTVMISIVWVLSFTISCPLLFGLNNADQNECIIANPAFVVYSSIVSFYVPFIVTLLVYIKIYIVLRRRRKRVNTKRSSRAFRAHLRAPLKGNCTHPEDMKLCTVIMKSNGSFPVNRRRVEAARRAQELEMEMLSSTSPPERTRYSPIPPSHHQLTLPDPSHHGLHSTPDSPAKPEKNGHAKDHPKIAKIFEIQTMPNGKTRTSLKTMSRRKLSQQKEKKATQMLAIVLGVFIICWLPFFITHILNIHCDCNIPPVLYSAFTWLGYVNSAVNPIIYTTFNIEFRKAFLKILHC

[2] = molecular target: D(2) dopamine receptor (Homo sapiens) (UniProt P14416); experiment: Agonistic activity at a dose of 3.08 umol/kg was evaluated against Dopamine receptor D2 in the […] cardioaccelerator nerve preparation; Inactive; format: functional; details: Felis catus
[3] = molecular target: D(2) dopamine receptor (Homo sapiens) (UniProt P14416); experiment: Agonistic activity at a dose of 12.3 umol/kg was evaluated in rats with unilateral lesion of the nigrostriatal pathway (post junctional dopamine receptors); Inactive; format: functional; details: Rattus norvegicus, target entry is the homologue from another species
[4] = molecular target: T1, Dopamine receptor (Rattus norvegicus) (UniProt P25115+P19020+P30729+P18901+P61169); experiment: Antagonistic activity at a dose of 12.3 umol/kg was evaluated in rats with unilateral lesion of the nigrostriatal pathway (post junctional dopamine receptors); Inactive; format: functional
[5] = molecular target: D(2) dopamine receptor (Homo sapiens) (UniProt P14416); experiment: Potency was evaluated for the activity against Dopamine receptor D2 of cat cardioaccelerator nerve preparation; Active; details: Felis catus; target entry is the homologue from another species
[6] = molecular target: D(2) dopamine receptor (Homo sapiens) (UniProt P14416); experiment: Antagonistic activity at a dose of 3.4 umol/kg was evaluated against Dopamine receptor D2 in the […] cardioaccelerator nerve preparation; Inactive; format: functional; details: Felis catus
[7] = molecular target: T1, Dopamine receptor (Rattus norvegicus); experiment: Antagonistic activity at a dose of 13.3 umol/kg was evaluated in rats with unilateral lesion of the nigrostriatal pathway (post junctional dopamine receptors); Inactive; format: functional
[8] = molecular target: D(2) dopamine receptor (Homo sapiens) (UniProt P14416); experiment: Agonistic activity at a dose of 3.4 umol/kg was evaluated against Dopamine receptor D2 in the […] cardioaccelerator nerve preparation; Inactive; format: functional; details: Felis catus
[9] = molecular target: D(2) dopamine receptor (Homo sapiens) (UniProt P14416); experiment: Agonistic activity at a dose of 13.3 umol/kg was evaluated in rats with unilateral lesion of the nigrostriatal pathway (post junctional dopamine receptors); Inactive; format: functional; details: Rattus norvegicus, target entry is the homologue from another species
Felis catus [10] = species: Felis catus; experiment: Inhibitory dose was evaluated against cat cardioaccelerator nerve preparation; format: functional; details: read-out: ID50 (the source's name)
Felis catus [11] = species: Felis catus; experiment: Inhibitory dose was evaluated for the inhibition of the chronotropic response to nerve stimulation using the cat cardioaccelerator nerve preparation; format: functional; details: read-out: ID50 (the source's name)
Felis catus [12] = species: Felis catus; experiment: Inhibitory dose was evaluated on the cat cardioaccelerator nerve preparation; format: functional; details: read-out: ID50 (the source's name)
Felis catus [13] = experiment: Compound at a dose of 100 ug/kg was evaluated for the reversal of the inhibition of nerve stimulation using the cat cardioaccelerator nerve preparation; Reversed inhibition; format: functional, organism-based
Felis catus [14] = experiment: Compound at a dose of 50 ug/kg was evaluated for the reversal of the inhibition of nerve stimulation using the cat cardioaccelerator nerve preparation; Reversed inhibition; format: functional, organism-based

CCCN1CCC[C@@H]2c3c(OC)ccc(OC)c3CC[C@@H]21
Activity [1]: inactive | Activity [2]: inactive | Activity [3]: inactive | Activity [4]: inactive

CCCN(CCC)C1Cc2cccc(O)c2C1 (stereo not given)
Activity [5]: Active

CCCN(CCC)CCc1cc(OC)ccc1OC
Activity [6]: inactive | Activity [7]: inactive | Activity [8]: inactive | Activity [9]: inactive

CCCN(CCC)C1CCc2c(O)cccc2C1 (stereo not given)
Activity [5]: Active

CCCN1CCC[C@@H]2Cc3c(OC)ccc(OC)c3C[C@H]21
ED50 (Felis catus [10]): 0.032 µmol/kg

CCCN1CCC[C@H]2c3c(OC)ccc(OC)c3CC[C@@H]21
ED50 (Felis catus [11]): 1.17 µmol/kg

CN1CCc2cccc3c2[C@H]1Cc1ccc(O)c(O)c1-3 [APOMORPHINE]
ED50 (Felis catus [12]): 0.022 µmol/kg

O=C(CCCN1CCC(O)(c2ccc(Cl)cc2)CC1)c1ccc(F)cc1
Activity (Felis catus [13]): Active | Activity (Felis catus [14]): Active
